Where two headings read alike, the source gives them in different places.
Tests used:
HCT116 pERK = test: Phospho-ERK inhibition, AlphaLISA SureFire Ultra p-ERK 1/2; format: cell-based, human; conditions: for IC50: 1 h treatment; for HCT116 (Ymin %): lowest value of the pERK IC50 curve
Experimental: (§1) All cancer cell lines (A375, A101D, A2058, RKO, HT29 SK-MEL 30, IPC298, HepG2, HCT-116, Lovo, SW620, SW480, NCI-H358, NCI-H2122, Calu-6, NCIH2087, NCIH1755, NCIH1666 and Mewo) were obtained from ATCC and cultured in RPMI-1640 medium (Gibco) supplemented with 5% heat inactivated fetal bovine serum (FBS, Wisent) at 37° C. under 5% CO2. Cells were maintained in T175 flasks (Greiner). They were passaged by removing the culture medium, washing once in 10 mL of room temperature Phosphate Buffered Saline (PBS; Wisent) and incubating at 37° C. with 2 mL of 0.05% Trypsin (Thermo-Fisher). Trypsin was then inactivated by adding complete growth medium and the cells were then replated in a T175 culture dish at the appropriate dilution. All cell lines were routinely tested for mycoplasma contamination. Tissue type and mutational status of each cell line can be found in Table B.
(§2) AlphaLISA® SureFire® Ultra™ p-ERK ½ (Thr202/Tyr204) analysis was conducted on cells plated in 100 μL of complete RPMI-1640 growth medium in 96-well flat-bottomed transparent dishes (Costar) at a density indicated in Table C. Cells were maintained overnight at 37° C. under 5% CO2 before treatment with compounds' dilution series for one hour. The cell density in cells/cm^2 corresponds to cell number divided by the area of one well of a 96-well plate ([…]).
(§3) In a dilution series 100 μL/well of test substance dilution prepared in complete RPMI-1640 growth media was added to the cells. The dilution series is selected so that ten concentrations cover a range from 30 μM or 10 μM to 0.33 nM. If necessary, the initial concentration of 10 μM is increased to 100 μM or lowered to 1 μM (as in the case of A375 and NCIH1666 cells, which are generally more sensitive to the compounds) and further dilution is carried out accordingly. The final concentration of DMSO in the assay is set at 0.5%.
(§4) After treatment, media was removed, and cells were lysed in 50 μL of 1× AlphaScreen Ultra Lysis Buffer (Perkin Elmer). The AlphaLISA® SureFire® Ultra™ p-ERK ½ (Thr202/Tyr2O4) (PerkinElmer) reactions were performed with 5 μL of cell lysate according to the manufacturer's specifications in 384-well proxyplates (Perkin Elmer) followed by overnight incubation of the reactions at room temperature in a humidified chamber. After completion of the reactions, the signals were recorded on an EnVision plate reader (Perkin Elmer) using built in AlphaLISA® settings.
(§5) The effect of each compound dilution on the pERK signal was expressed in % inhibition and calculated as follows. An internal 100% inhibition control (1 μM trametinib, cat. No. HY-10999; MedChem Express; CAS No. 871700-17-3) was included in each plate and used as a measure of pERK background. First, the value obtained for trametinib was subtracted from each data point. The average of DMSO (vehicle) controls (set as 0% inhibition) was established and used to calculate % inhibition:
(§6) The ability of each compound to inhibit pERK signal was expressed as an IC50 value obtained by plotting the inhibition values for each data point of a dilution series and fitting the obtained curves using a log(agonist) versus response−variable slope (four parameters) function using GraphPadPrism (V7.0).
(§7) When present, paradoxical pERK induction is inferred from the negative % inhibition values observed in the pERK IC50 curves of a compound.

SW480 pERK = test: as above; format: cell-based, human; conditions: for IC50: 1 h treatment; for SW480 (Ymin %): lowest value of the pERK IC50 curve
Experimental: as §1, §2, §3, §4, §5, §6, §7

[1] = Table 2, read-out: SW480 PERK IC50 (UM)
[2] = Table 3, read-out: SW480 PERK IC50

Row | SMILES | IC50 (HCT116 pERK; Table 2) [µM] | HCT116 (Ymin %) (HCT116 pERK; Table 2) [%] | IC50 (SW480 pERK; [1]) [µM] | SW480 (Ymin %) (SW480 pERK; Table 2) [%] | IC50 (HCT116 pERK; Table 3) [µM] | HCT116 (Ymin %) (HCT116 pERK; Table 3) [%] | IC50 (SW480 pERK; [2]) [µM] | SW480 (Ymin %) (SW480 pERK; Table 3) [%]
1 | COc1ccc(S(=O)(=O)Nc2ccc(F)c(Nc3ncnc4cnc(SC)nc34)c2F)cc1OC [Example 2] | 1 to 10 | −14 | 1 to 10 | 5 |  |  |  | 
2 | COC(=O)c1sccc1S(=O)(=O)Nc1ccc(F)c(Nc2ncnc3cnc(SC)nc23)c1F [Example 3] | 1 to 10 | −7 | 1 to 10 | 9 |  |  |  | 
3 | CSc1ncc2ncnc(Nc3c(F)ccc(NS(=O)(=O)c4ccc5c(c4)CCO5)c3F)c2n1 [Example 4] | 1 to 10 | −5 | 1 to 10 | −2 |  |  |  | 
4 | CSc1ncc2ncnc(Nc3c(F)ccc(NS(=O)(=O)c4ccccc4C#N)c3F)c2n1 [Example 5] | 10 to 30 | 8 | 1 to 10 | 8 |  |  |  | 
5 | CSc1ncc2ncnc(Nc3c(F)ccc(NS(=O)(=O)c4ccc5c(c4)OCO5)c3F)c2n1 [Example 6] | 10 to 30 | −10 | 1 to 10 | 1 |  |  |  | 
6 | COc1ccc(S(=O)(=O)Nc2ccc(F)c(Nc3ncnc4cnc(SC)nc34)c2F)c(C#N)c1 [Example 7] | 10 to 30 | 7 | 1 to 10 | 17 |  |  |  | 
7 | COc1ccc(S(=O)(=O)Nc2ccc(F)c(Nc3ncnc4cnc(SC)nc34)c2F)c(F)c1 [Example 8] | 1 to 10 | −3 | 1 to 10 | 15 |  |  |  | 
8 | CSc1ncc2ncnc(Nc3c(F)ccc(NS(=O)(=O)c4ccc(F)cc4C#N)c3F)c2n1 [Example 10] | 10 to 30 | 9 | 1 to 10 | −9 |  |  |  | 
9 | COc1ccc(S(=O)(=O)Nc2ccc(F)c(Nc3ncnc4cnc(SC)nc34)c2F)c(C)c1 [Example 12] | 1 to 10 | −7 | 1 to 10 | −10 |  |  |  | 
10 | COc1ccc(S(=O)(=O)Nc2ccc(F)c(Nc3ncnc4cnc(SC)nc34)c2F)c(C(F)(F)F)c1 [Example 14] | 1 to 10 | −5 | 1 to 10 | −6 |  |  |  | 
11 | CSc1ncc2ncnc(Nc3c(F)ccc(NS(=O)(=O)c4ccc(Cl)cc4Cl)c3F)c2n1 [Example 15] | 10 to 30 | −3 | 10 to 30 | 0 |  |  |  | 
12 | CSc1ncc2ncnc(Nc3c(F)ccc(NS(=O)(=O)c4ccc(Br)cc4F)c3F)c2n1 [Example 16] | 10 to 30 | 1 | 1 to 10 | 3 |  |  |  | 
13 | CSc1ncc2ncnc(Nc3c(F)ccc(NS(=O)(=O)c4ccc(Br)cc4C)c3F)c2n1 [Example 17] | 10 to 30 | 5 | 1 to 10 | 3 |  |  |  | 
14 | CSc1ncc2ncnc(Nc3c(F)ccc(NS(=O)(=O)c4ccc(C)cc4)c3F)c2n1 [Example 18] | 10 to 30 | 4 | 1 to 10 | 11 |  |  |  | 
15 | COc1ccc(S(=O)(=O)Nc2ccc(F)c(Nc3ncnc4cnc(SC)nc34)c2F)c(OC)c1 [Example 19] | 10 to 30 | −4 | 1 to 10 | 4 |  |  |  | 
16 | CSc1ncc2ncnc(Nc3c(F)ccc(NS(=O)(=O)c4ccccc4C)c3F)c2n1 [Example 20] | 1 to 10 | 7 | 1 to 10 | 12 |  |  |  | 
17 | CSc1ncc2ncnc(Nc3c(F)ccc(NS(=O)(=O)c4ccccc4Cl)c3F)c2n1 [Example 21] | 1 to 10 | 2 | 1 to 10 | 9 |  |  |  | 
18 | CSc1ncc2ncnc(Nc3c(F)ccc(NS(=O)(=O)c4ccc(Cl)cc4C)c3F)c2n1 [Example 22] | 1 to 10 | −1 | 1 to 10 | −5 |  |  |  | 
19 | CSc1ncc2ncnc(Nc3c(F)ccc(NS(=O)(=O)c4ccc(C)cc4C)c3F)c2n1 [Example 23] | 1 to 10 | 0 | 1 to 10 | −7 |  |  |  | 
20 | CSc1ncc2ncnc(Nc3c(F)ccc(NS(=O)(=O)N4CCCC4)c3F)c2n1 [Example 24] | 10 to 30 | 10 | 1 to 10 | 13 |  |  |  | 
21 | COC1CN(S(=O)(=O)Nc2ccc(F)c(Nc3ncnc4cnc(SC)nc34)c2F)C1 [Example 25] | 10 to 30 | 7 | 10 to 30 | −6 |  |  |  | 
22 | CSc1ncc2ncnc(Nc3c(F)ccc(NS(=O)(=O)N4CCC(F)(F)C4)c3F)c2n1 [Example 27] | 10 to 30 | −6 |  |  |  |  |  | 
23 | COc1ccc(S(=O)(=O)Nc2ccc(F)c(Nc3ncnc4cnc(-n5cnc(C)c5)nc34)c2F)cc1OC [Example 30] |  |  |  |  | 1 to 10 | −6 | 10 to 30 | −5
24 | COc1ccc(S(=O)(=O)Nc2ccc(F)c(Nc3ncnc4cnc(N5CC[C@H](F)C5)nc34)c2F)cc1 [Example 31] |  |  |  |  | 1 to 10 | 13 | 1 to 10 | 11
25 | COc1ccc(S(=O)(=O)Nc2ccc(F)c(Nc3ncnc4cnc(-n5ccnc5C)nc34)c2F)cc1 [Example 32] |  |  |  |  | 10 to 30 | 1 | 1 to 10 | 8
26 | N#Cc1ccccc1S(=O)(=O)Nc1ccc(F)c(Nc2ncnc3cnc(N4CC[C@H](F)C4)nc23)c1F [Example 33] |  |  |  |  | 10 to 30 | −4 | 1 to 10 | 13
27 | Cc1ncn(-c2ncc3ncnc(Nc4c(F)ccc(NS(=O)(=O)c5ccccc5C#N)c4F)c3n2)c1C [Example 34] |  |  |  |  | 10 to 30 | −3 | 1 to 10 | −2.0

From patent US20240239801A1, “PYRIMIDO[5,4,D]PYRIMIDINE COMPOUNDS, COMPOSITIONS COMPRISING THEM AND USES THEREOF” (Université de Montréal, priority 2021, published 2024)
